Assay results from patent publication US20230399341A1, “7-PHENYL SUBSTITUTED 2-AMINOQUINAZOLINE INHIBITORS OF HPK1” (MERCK SHARP & DOHME LLC, priority 2020, published 2023).

The compounds below were run against T1, Human HPK1, catalytic domain (Homo sapiens, UniProt Q92918) (assay: HPK1-SLP76 TR-FRET Assay). Details: 75 pM HPK1, ATP 10 uM, SLP76 10 nM, 30 min pre-incubation, 60 min reaction.
T1 sequence (Q92918 1-346): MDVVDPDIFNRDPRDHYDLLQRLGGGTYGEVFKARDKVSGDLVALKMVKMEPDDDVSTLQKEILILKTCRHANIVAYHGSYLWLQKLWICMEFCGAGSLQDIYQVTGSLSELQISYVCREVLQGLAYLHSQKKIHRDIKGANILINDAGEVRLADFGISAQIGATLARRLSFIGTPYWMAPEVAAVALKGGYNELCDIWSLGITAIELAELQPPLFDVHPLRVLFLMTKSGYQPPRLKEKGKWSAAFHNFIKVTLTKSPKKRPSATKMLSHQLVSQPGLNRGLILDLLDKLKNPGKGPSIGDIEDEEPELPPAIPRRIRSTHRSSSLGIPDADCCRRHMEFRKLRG
Assay type: biochemical

Row | SMILES | IC50
1 | COc1cc2c(cc1Nc1ncc3ccc(-c4ccc5c(c4)C(=O)N(CC4CC4)C5)cc3n1)CNCC2 [Compound 1-68, 2-(cyclopropylmethyl)-6-{2-[(6-methoxy-1,2,3,4-tetrahydroisoquinolin-7-yl)amino]quinazolin-7-yl}-2,3-dihydro-1H-isoindol-1-one] | 161 nM
2 | COc1cc2c(cc1Nc1ncc3ccc(-c4ccc5c(c4)OCO5)cc3n1)CNCC2 [Compound 1-71, 7-(2H-1,3-benzodioxol-5-yl)-N-(6-methoxy-1,2,3,4-tetrahydroisoquinolin-7-yl)quinazolin-2-amine] | 138 nM
3 | COc1cc2c(cc1Nc1ncc3ccc(N[C@H]4CCN(C(=O)C5CC5)C4)cc3n1)CN(C)CC2 [Compound 3-22, cyclopropyl[(3S)-3-({2-[(6-meth-oxy-2-methyl-1,2,3,4-tetrahydro-isoquinolin-7-yl)amino]quinaz-olin-7-yl}amino)pyrrolidin-1-yl]-methanone] | 535 nM
4 | COc1cc2c(cc1Nc1ncc3ccc(Nc4ccc5c(c4)N(C(C)=O)CC5)cc3n1)CN(C)CC2 [Compound 3-32, 1-[6-({2-[(6-methoxy-2-methyl-1,2,3,4-tetrahydroisoquinolin-7-yl)amino]quinazolin-7-yl}-amino)-2,3-dihydro-1H-indol-1-yl]ethan-1-one] | 57.1 nM
5 | COc1cc2c(cc1Nc1ncc3ccc(-n4nc(C)nc4C4CCCN4)cc3n1)CN(C)CC2 (racemic) [Compound 3-19, (S and R)-N-(6-methoxy-2-meth-yl-1,2,3,4-tetrahydroisoquinolin-7-yl)-7-[3-methyl-5-(pyrrolidin-2-yl)-1H-1,2,4-triazol-1-yl]quin-azolin-2-amine] | 638 nM
6 | COc1cc2c(cc1Nc1ncc3ccc(NC4CCN(C)C4=O)cc3n1)CN(C)CC2 (racemic) [Compound 3-56, (S and R)-3-({2-[(6-methoxy-2-methyl-1,2,3,4-tetrahydroiso-quinolin-7-yl)amino]quinazolin-7-yl}amino)-1-methylpyrrolidin-2-one] | 97.6 nM
7 | COc1cc2c(cc1Nc1ncc3ccc(N4C(=O)OC[C@H]4C(C)C)cc3n1)CN(C)CC2 [Compound 3-10, (4R)-3-{2-[(6-methoxy-2-meth-yl-1,2,3,4-tetrahydroisoquinolin-7-yl)amino]quinazolin-7-yl}-4-(propan-2-yl)-1,3-oxazolidin-2-one] | 107 nM
8 | COc1cc2c(cc1Nc1ncc3ccc(-c4ccc(CN(C)C)cc4)cc3n1)CNCC2 [Compound 1-57, 7-{4-[(dimethylamino)methyl]phe-nyl}-N-(6-methoxy-1,2,3,4-tetrahydroisoquinolin-7-yl)quinazolin-2-amine] | 79.2 nM
9 | COc1cc2c(cc1Nc1ncc3ccc(NC4CCCOC4)cc3n1)CN(C)CC2 (racemic) [Compound 3-69, (S and R)-N-2~-(6-methoxy-2-methyl-1,2,3,4-tetrahydroiso-quinolin-7-yl)-N~7~-(oxan-3-yl)quinazoline-2,7-diamine] | 470 nM
10 | COc1cc2c(cc1Nc1ncc3ccc(-c4cc(C#N)ccc4OC)cc3n1)CNCC2 [Compound 1-63, 4-methoxy-3-{2-[(6-methoxy-1,2,3,4-tetrahydroisoquinolin-7-yl)amino]quinazolin-7-yl}benzonitrile] | 45.7 nM
11 | COc1cc2c(cc1Nc1ncc3c(N)c(F)c(-c4cc(C#N)ccc4C)cc3n1)CN(C)CC2 [Compound 2-51, 3-(5-amino-6-fluoro-2-((6-methoxy-2-methyl-1,2,3,4-tetrahydroisoquinolin-7-yl)amino)quinazolin-7-yl)-4-methylbenzonitrile] | 474 nM
12 | COc1cc2c(cc1Nc1ncc3ccc(-c4cncc(NS(C)(=O)=O)c4)cc3n1)CNCC2 [Compound 1-37, N-(5-{2-[(6-methoxy-1,2,3,4-tetrahydroisoquinolin-7-yl)amino]quinazolin-7-yl}pyridin-3-yl)methanesulfonamide] | 27.9 nM

Stronger by IC50, values ahead:

Row | IC50 | SMILES
13 | 20.5 nM | COc1cc2c(cc1Nc1ncc3ccc(-c4cccc(CO)c4)cc3n1)CNCC2 [Compound 1-60, (3-{2-[(6-methoxy-1,2,3,4-tetrahydroisoquinolin-7-yl)amino]quinazolin-7-yl}phenyl)methanol]
14 | 19.1 nM | COc1cncc(-c2ccc3cnc(Nc4cc5c(cc4OC)CCN(C)C5)nc3c2)c1 [Compound 1-17, N-(6-methoxy-2-methyl-1,2,3,4-tetrahydroisoquinolin-7-yl)-7-(5-methoxypyridin-3-yl)quinazolin-2-amine]
15 | 10.8 nM | COc1cc2c(cc1Nc1ncc3ccc(-c4cnn(C(F)F)c4)cc3n1)CN(C)CC2 [Compound 1-26, 7-[1-(difluoromethyl)-1H-pyrazol-4-yl]-N-(6-methoxy-2-methyl-1,2,3,4-tetrahydroisoquinolin-7-yl)quinazolin-2-amine]
16 | 10.5 nM | COc1cc2c(cc1Nc1ncc3ccc(-c4cncc5cccnc45)cc3n1)CN(C)CC2 [Compound 1-24, N-(6-methoxy-2-methyl-1,2,3,4-tetrahydroisoquinolin-7-yl)-7-(1,6-naphthyridin-8-yl)quinazolin-2-amine]
17 | 2.57 nM | COc1cc2c(cc1Nc1ncc3ccc(-c4cnc(N)nc4C)cc3n1)CN(C)CC2 [Compound 1-19, 7-(2-amino-4-methylpyrimidin-5-yl)-N-(6-methoxy-2-methyl-1,2,3,4-tetrahydroisoquinazolin-7-yl)quinazolin-2-amine]
18 | 0.722 nM | COc1nc(C)ccc1Nc1ncc2c(N)c(F)c(-c3cnc4c(c3C)NCCO4)cc2n1 [Compound 2-66, 6-fluoro-N~2~-(2-methoxy-6-methylpyridin-3-yl)-7-(8-methyl-2,3-dihydro-1H-pyrido[2,3-b][1,4]oxazin-7-yl)quinazoline-2,5-diamine]
19 | 0.68 nM | Cc1c(-c2cc3nc(Nc4ccc(C(C)S(C)(=O)=O)cc4)ncc3cc2F)cnc2c1NCCO2 (single isomer, unassigned) [Compound 1-126, (R of S)-6-fluoro-7-(8-methyl-2,3-dihydro-1H-pyrido[2,3-b][1,4]oxazin-7-yl)-N-{4-[1-(methylsulfonyl)ethyl]phenyl} quinazolin-2-amine]
20 | 0.679 nM | CNC(=O)c1ccc(Nc2ncc3c(N)c(F)c(-c4cnc5c(c4C)NCCO5)c(Cl)c3n2)c(OC)c1 [Compound 2-97, (+ or −)-4-{[5-amino-8-chloro-6-fluoro-7-(8-methyl-2,3-dihydro-1H-pyrido[2,3-b][1,4]oxazin-7-yl)quinazolin-2-yl]amino}-3-methoxy-N-methylbenzamide]
21 | 0.275 nM | Cc1c(-c2cc3nc(Nc4ccccc4)ncc3c(N)c2F)cnc2c1NCCO2 [Compound 2-25, 6-fluoro-7-(8-methyl-2,3-dihydro-1H-pyrido[2,3-b][1,4]oxazin-7-yl)-N~2~- phenylquinazoline-2,5-diamine]
22 | 0.194 nM | Cc1ccncc1-c1cc2nc(Nc3ccc(CS(C)(=O)=O)cc3)ncc2c(N)c1F [Compound 2-44, 6-fluoro-7-(4-methylpyridin-3-yl)-N~2~- {4-[(methylsulfonyl)methyl]phenyl}quinazoline-2,5-diamine]
23 | 0.0757 nM | COc1cc2c(cc1Nc1ncc3c(N)cc(N4C(=O)OC[C@@H]4C)cc3n1)CN(C)CC2 [Compound 3-17, (S)-3-{5-amino-2-[(6-methoxy-2-methyl-1,2,3,4-tetrahydroiso-quinolin-7-yl)amino]quinazolin-7-yl}-4-methyl-1,3-oxazolidin-2-one]
24 | 0.0726 nM | CNC(=O)Cc1ccc(Nc2ncc3cc(F)c(-c4cnc5c(c4C)NCCO5)cc3n2)cc1 [Compound 1-130, 2-(4-{[6-fluoro-7-(8-methyl-2,3-dihydro-1H-pyrido[2,3-b][1,4]oxazin-7-yl)quinazolin-2-yl]amino}phenyl)-N-methylacetamide]
25 | 0.051 nM | Cc1c(-c2cc3nc(Nc4ccc5c(c4)CN(C(C)C)CC5)ncc3c(N)c2F)cnc2c1NCC(C)O2 (single isomer, unassigned) [Compound 2-145, 7-(3,8-dimethyl-2,3-dihydro-1H-pyrido[2,3-b][1,4]oxazin-7-yl)-6-fluoro-N2-(2-isopropyl-1,2,3,4-tetrahydroisoquinolin-7-yl)quinazoline-2,5-diamine]
26 | 0.0507 nM | Cc1c(-c2cc3nc(Nc4cc5c(cc4F)CCN(C(C)C)C5)ncc3c(N)c2F)cnc2c1NCCO2 [Compound 2-171, 6-fluoro-N~2~-[6-fluoro-2-(propan-2-yl)-1,2,3,4-tetrahydroisoquinolin-7-yl]-7-(8-methyl-2,3-dihydro-1H-pyrido[2,3-b][1,4]oxazin-7-yl)quinazoline-2,5-diamine]
27 | 0.0505 nM | Cc1c(-c2cc3nc(Nc4ccc(C5CCN(C)C5=O)cc4)ncc3c(N)c2F)cnc2c1NCCO2 (single isomer, unassigned) [Compound 2-146, (R or S)-3-(4-{[5-amino-6-fluoro-7-(8-methyl-2,3-dihydro-1H-pyrido[2,3-b][1,4]oxazin-7-yl)quinazolin-2-ylamino}phenyl)-1-methylpyrrolidin-2-one]
28 | 0.0379 nM | Cc1c(-c2cc3nc(Nc4cnc5c(c4)CN(C)CC5)ncc3c(N)c2F)cnc2c1NCCO2 [Compound 2-183, 6-fluoro-7-(8-methyl-2,3-dihydro-1H-pyrido[2,3-b][1,4]oxazin-7-yl)-N~2~- (6-methyl-5,6,7,8-tetrahydro-1,6-naphthyridin-3-yl)quinazoline-2,5-diamine]
29 | 0.0303 nM | Cc1c(-c2c(F)c(N)c3cnc(Nc4cc5c(cc4F)CCN(C)C5)nc3c2Cl)cnc2c1NCCO2 [Compound 2-185, (+ and −)-8-chloro-6-fluoro-N~2~-(6-fluoro-2-methyl-1,2,3,4-tetrahydroisoquinolin-7-yl)-7-(8-methyl-2,3-dihydro-1H-pyrido[2,3-b][1,4]oxazin-7-yl)quinazoline-2,5-diamine]
